# Measured values published in patent publication US8361999B2, “Methods of treating cholesterol gallstone disease with ezetimibe” (Pontificia Universidad Catolica de Chile, priority 2005, dated 2013).
# Experiments:
# C57BL/6J mice = experiment: Lithiasis of the gallbladder and cholesterol crystals in gallbladder bile, protocol #1 (14 days); type: in vivo, mouse; conditions: for formation of cholesterol crystals and cholesterol gallstones: C57BL/6 mice on lithogenic diet plus ezetimibe
# Description: Experimental Animal Disease Models. Spontaneous cholelithiasis is extremely rare in experimental or wild animals, probably because they secrete low levels of cholesterol into the bile and have therefore non-saturated cholesterol bile. However, different animal models (rabbit, hamster, prairie dog, squirrel and mouse) develop cholelithiasis similar to the human disease on cholesterol rich plus bile salts (cholic acid) and sometimes triglycerides rich experimental diets. The mouse is the best characterized experimental model where the development of the disease is dependent of a diet known as “lithogenic” (1.25% cholesterol, 0.5% cholic acid, 15% fat). Under these conditions most of the available mouse strains develop cholesterol cholelithiasis in variable proportions and times (Paigen, 2002). It has been established that there are strains more susceptible or more resistant to develop cholelithiasis, which could be genetically determined. The mice strains C57L and C57BL/6 are particularly susceptible to develop cholelithiasis (80-100% of the animals develop the disease in 2-4 weeks on lithogenic diet) (Paigen, 2002; Bouchard et al., unpublished data communicated in www.jax.org/pub-cgi/phenome). Studies performed in these models during the last years have been vital in the better understanding of the disease and for the discovery of genes that are potentially relevant in generating susceptibility to the illness (Paigen, 2002). In this preclinical innovation work we use the mouse strain C57BL/6.
# We used mice C57BL/6J susceptible to the development of cholelithiasis originally obtained from Jackson Corp (Bar Harbor, Me., USA) and the colonies were grown in our Laboratory of Gastroenterology, Facultad de Medicina, P. Universidad Católica de Chile. The experimental groups were fed a control chow diet low in cholesterol (<0.02% cholesterol, Prolab RMH3000, PMI Feeds Inc., St. Louis, Mo.) or a lithogenic diet (1.25% cholesterol, 0.5% cholic acid, 15% fat, TD90221, Harlan Teklad, Madison, Wis.) (Amigo et al. 2000). These mice were also treated with Ezetimibe (Zetia®, Merk/Schering Plough) or placebo. In protocol #1 Zetia® tablets were grinded in a porcelain mortar and dissolved in water to be administered to the mice in one daily dose (08 h) of 5 mg/Kg weight by gavage in a final volume of […]; the control groups were given the same volume of water by gavage without the drug. In protocol #2 Zetia® tablets were grinded in the same way described above, dissolved in 200 cc 100% ethanol (Merck) and added to the lithogenic diet previously grinded and dried for 48 h at room temperature. C57BL/6J mice received this lithogenic diet plus Zetia® in a estimated dose of 5-6 mg/kg/day during 30 days (the mice consume 4-5 gr of diet per day). […]
# [1] = test system: intestinal cholesterol absorption; conditions: mammalian models (murine models); cited from earlier work
smiles,measurement,setting,value
"O=C1[C@H](CC[C@H](O)c2ccc(F)cc2)[C@@H](c2ccc(O)cc2)N1c1ccc(F)cc1 [Ezetimibe, (−)-1-(4-fluorophenyl)-(3R)-[3-(4-fluorophenyl)-(.S)-hydroxypropyl]-(4S)-(4-hydroxyphenyl)-2-azetidinone]",formation of cholesterol crystals and cholesterol gallstones,C57BL/6J mice,complete inhibition
same,formation of cholesterol crystals and cholesterol gallstones,C57BL/6J mice; listed as ezetimibe,inhibited
same,development of cholelithiasis or cholesterol crystals in the bile,C57BL/6J mice; control diet low in cholesterol plus Ezetimibe,did not develop cholelithiasis or cholesterol crystals
same,mice that developed gallstones or cholesterol crystals in the gallbladder,"C57BL/6J mice; lithogenic diet plus Ezetimibe 5 mg/kg/day by gavage, 100% in lithogenic diet plus water",none
same,dosages that effectively inhibit intestinal cholesterol absorption,[1],0.1-6 mg/kg body weight per day
